The nature of data set [1]: Tolerability in the A2058 xenograft study. The class given is in vivo, Balb-c/nude mouse. The note with it: peritumoral QOD; resolved after the treatment was stopped. The protocol:
(§1) Each Balb-c/nude mouse was inoculated subcutaneously at the right flank with A2058 melanoma tumor cells (5×10^6+Matrigel) in 0.2 ml of PBS for tumor development. 10 animals per group were randomized when the average tumor volume reached 74 mm^3. Test compounds were prepared as DMSO stocks and diluted in the injection vehicle before administration. The treatment was administered every other day (QOD) as a peritumoral injection. Vehicle composition was 4% DMSO, 5% ethanol, 20% PEG200, 71% saline. Dosing volume for all groups: 5 mL/kg.
Body weight and clinical signs were monitored throughout the study.

Another data set has as its system NFKB. Nature of the data set: SelectScreen CellSensor pathway inhibition, NFKB. Format: cell-based. The note with it: Homo sapiens; NFKB-bla Jurkat, stimulus TNF-alpha. As for the experimental part: Inhibition of various cellular pathways known to be involved in malignancy was tested using the SelectScreen Cell-based Pathway Profiling GeneBLAzer™ cell signaling pathway specific CellSensor™ cell lines ((Thermo Fisher). The assay is based on a beta-lactamase reporter activity which is modulated and can be measured quantitatively and selectively with the LiveBLAzer™-FRET B/G Loading Substrate. SelectScreen Cell-Based Pathway Profiling Service uses XLfit from IDBS. The dose response curve is curve fit to model number 205 (sigmoidal dose-response model). Custom logic was built by Thermo Fisher for the data analysis tool to address the different compound characteristics that can be observed with functional assays.
NFKB—NFKB-bla Jurkat—Inhibitor Screen, Activated by TNF-Alpha
NFKB-bla Jurkat cells are thawed and resuspended in Assay Media (DMEM, 10% dialyzed FBS, 25 mM HEPES pH 7.3, 0.1 mM NEAA, 100 U/mL/100 μg/mL Pen/Strep) to a concentration of 625,000 cells/mL. […] 4 μL of 10×control activator TNF-alpha at the pre-determined EC80 concentration is added to wells containing the control inhibitor or compounds.
The plate is incubated for 5 hours at 37° C./5% CO2 in a humidified incubator. […] The plate is read on a fluorescence plate reader.

The test system of a further data set is Kelly. Kind of data set: CellTiter-Glo cell viability, Kelly. The class given is cell-based. The note with it: Kelly cells, 72 h with compound. The protocol:
(§2) Antitumor activity against a panel of cancer cell lines Antitumor activity of the compounds was assessed by using the CellTiter-Glow® Luminescent Cell Viability assay (Promega #G7572) according to the manufacturer's instructions. The compounds were tested at 5 or 6 concentrations in 1:2 dilution increments (highest concentration 10 µM) in triplicate well conditions.
(§3) Tumor cells were grown at 37° C. in a humidified atmosphere with 5% CO2 in RPMI 1640 or DMEM medium, supplemented with 10% (v/v) fetal calf serum and 50 μg/ml gentamicin for up to 20 passages, and were passaged once or twice weekly. Cells were harvested using TrypLE or PBS buffer containing 1 mM EDTA, and the percentage of viable cells is determined using a cell counter.
(§4) Cells were harvested from exponential phase cultures, counted and plated in 96 well flat-bottom microtiter plates at a cell density depending on the cell line's growth rate (4,000-20,000 cells/well depending on the cell line's growth rate) in RPMI 1640 or DMEM medium supplemented with 10% (v/v) fetal calf serum and 50 μg/ml gentamicin (140 μl/well). Cultures were incubated at 37° C. and 5% CO2 in a humidified atmosphere. After 24 h, 10 μl of test compounds or control medium are added, and left on the cells for another 72 h. Compounds were serially diluted in DMSO, transferred in cell culture medium, and added to the assay plates. The DMSO concentration was kept constant at <0.2% v/v across the assay plate. Viability of cells was quantified by the CellTiter-Glow® Luminescent Cell Viability assay (Promega #G7572). Luminescence was measured with the microplate luminometer (En Vision Perkin Elmer).
Sigmoidal concentration-response curves were fitted to the data points (test-versus-control, T/C values) obtained for each tumor model using Graph Pad prism 5.02 software. IC50 values are reported as absolute IC50 values, being the concentration of test compound at the intersection of the concentration-response curves with T/C=50%.
Background: Cellular ATP, detected with luciferase, serves as a proxy for viable cell number.

For a further data set, the system named is Raji. Nature of the data set: CellTiter-Glo cell viability, Raji. The class given is cell-based. The note with it: Homo sapiens; Raji cells, 72 h with compound. The protocol:
as §2, §3
as §4, with “After 24 h, 10 μl of test compounds or control medium are added, and left on the cells for another 72 h. Compounds were serially diluted in DMSO, transferred in cell culture medium, and added to the assay plates. The DMSO concentration was kept constant at <0.2% v/v across the assay plate.” left out, “Elmer). […]” for “Elmer).”

The subject of a further data set is DMS-114. Kind of data set: Caspase-Glo 3/7 apoptosis assay, DMS-114. Format: cell-based. The note with it: DMS-114 cells, 10 μM, 24 h. The protocol:
(§5) Apoptosis activity was evaluated using Caspase-Glo 3/7 Assay kit (Promega-G8091) according to the manufacturer's instructions. Cells were grown as above and harvested from exponential phase cultures, counted and plated in 96 black well flat-bottom microtiter plates at a cell density depending on the cell line's growth rate (3,000-10,000 cells/well depending on the cell line's growth rate). Following an overnight incubation, compounds were added to the cell plates at various concentrations (highest at […]) with the DMSO concentration maintained at 0.1% for a 24 h period treatment. 100 μL of Caspase-Glo 3/7 Reagent was added to each well of 96-well plate containing 100 μL culture medium, and after 30 min at room temperature, luminescence was measured with the microplate luminometer (EnVision Perkin Elmer). The induced relative Caspase 3/7 activity of the tested compounds was determined by the following formula: Relative Caspase 3/7 activity (fold increase)=(RLU compound−RLU blank)/(RLU control−RLU blank).

Data set [2] deals with A2058 melanoma tumor cells. Nature of the data set: In vivo tumour inhibition, A2058 melanoma xenograft. The arrangement: species or system Balb-c/nude mouse. As for the experimental part: The A2058 tumor cells were maintained in vitro in DMEM medium supplemented with 10% fetal bovine serum and 1% Anti-Anti at 37° C. in an atmosphere of 5% CO2 in air. The tumor cells were routinely subcultured twice weekly.
as §1
Tumor volume was measured twice weekly in two dimensions using a caliper, and the volume was expressed in mm^3 using the formula: V=0.5a×b^2 where a and b are the long and short diameters of the tumor, respectively. The tumor size was then used for calculations of T/C value: The T/C value (in percent) is an indication of antitumor effectiveness; T and Care the mean volumes of the treated and control groups, respectively, on a given day.
One-way ANOVA was performed to compare tumor volume among treated groups and vehicle group, all data were analyzed using GraphPad Prism 5.0. p<0.05 was considered to be statistically significant.

In the next data set the test system is A2058. Kind of data set: Caspase-Glo 3/7 apoptosis assay, A2058. Format: cell-based. The note with it: A2058 cells, 10 μM, 24 h. As for the experimental part: as §5
Setting [3] is: 16 mg/kg peritumoral QOD, 6 injections, day 20 after treatment start.

For orientation: IC50 means the concentration that inhibits the measured activity by half. The T/C is the ratio of treated to control. The term TGI denotes how far tumour growth fell short of that in controls. A high value points to a stronger effect on the tumour. As for `COc1ccc2c(=O)c(-c3ccc(CCCC[P+](c4ccccc4)(c4ccccc4)c4ccccc4)cc3)coc2c1OC.[Br-]` [SND470, (4-(4-(7,8-Dimethoxy-4-oxo-4H-chromen-3-yl)phenyl)butyl)triphenylphosphonium bromide], in data set [1], the “finding at the site of the injection” value is given as “slight scabbing at the site of the injection”. Besides, the IC50 in the data set with NFKB is 1530 nM; in the data set on Kelly, 12 nM; with Raji, 530 nM. For the same compound, the “Fold activation of Caspase 3/7” value in the data set with DMS-114 worked out at 3.32 Fold; in the data set with A2058 it was 3.87 Fold. In addition, the T/C in data set [2] (setting [3]) worked out at 39.2%. The compound also came in with a TGI in data set [2] (setting [3]) of 62.8%. For the same compound, the “Tumor Volume” value in data set [2] (16 mg/kg peritumoral QOD, 6 injections, day 20 after treatment start, mean ± SEM) amounted to 886 ± 127 mm^3. The “activity in inhibiting A2058 melanoma cell line in vivo” value in data set [2] (nude mouse xenograft model of melanoma) was “significant activity”.

Source of the values: patent US20260028364A1, “CATIONIC CHROMENONES AND THEIR USE IN ONCOLOGY” (FLORATEK PHARMA S.A., priority 2022, published 2026).
